Legend:
CYP125A3 = CYP125A3 (Mycolicibacterium smegmatis, UniProt A0R4Y3); assay: biochemical; format: binding, Mycobacterium smegmatis mc2 155; conditions: for Soret band position after ligand addition: CYP125A3 3 μM, ligand 50 μM, resting Soret 393 nm with shoulder at 415 nm
CYP142A2 [1] = molecular target: T1, CYP142A2 (Mycolicibacterium smegmatis, UniProt A0R4Q6); assay: biochemical
CYP142A2 [2] = molecular target: T1, CYP142A2; conditions: CYP142A2 3 μM, ligand 50 μM; resting Soret 418 nm

Sequence of CYP125A3 (A0R4Y3 whole entry): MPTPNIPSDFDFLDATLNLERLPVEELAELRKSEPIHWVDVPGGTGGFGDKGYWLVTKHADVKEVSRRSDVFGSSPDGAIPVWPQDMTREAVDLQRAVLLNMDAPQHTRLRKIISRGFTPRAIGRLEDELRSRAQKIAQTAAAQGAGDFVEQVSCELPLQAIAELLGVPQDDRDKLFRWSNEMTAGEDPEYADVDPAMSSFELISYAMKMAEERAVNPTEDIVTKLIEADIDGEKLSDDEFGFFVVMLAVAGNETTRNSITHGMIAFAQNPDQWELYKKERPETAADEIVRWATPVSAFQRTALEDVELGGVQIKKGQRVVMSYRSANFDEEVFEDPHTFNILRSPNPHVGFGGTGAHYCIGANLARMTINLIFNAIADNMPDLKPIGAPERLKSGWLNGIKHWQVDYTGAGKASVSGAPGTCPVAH
T1 sequence (A0R4Q6 whole entry): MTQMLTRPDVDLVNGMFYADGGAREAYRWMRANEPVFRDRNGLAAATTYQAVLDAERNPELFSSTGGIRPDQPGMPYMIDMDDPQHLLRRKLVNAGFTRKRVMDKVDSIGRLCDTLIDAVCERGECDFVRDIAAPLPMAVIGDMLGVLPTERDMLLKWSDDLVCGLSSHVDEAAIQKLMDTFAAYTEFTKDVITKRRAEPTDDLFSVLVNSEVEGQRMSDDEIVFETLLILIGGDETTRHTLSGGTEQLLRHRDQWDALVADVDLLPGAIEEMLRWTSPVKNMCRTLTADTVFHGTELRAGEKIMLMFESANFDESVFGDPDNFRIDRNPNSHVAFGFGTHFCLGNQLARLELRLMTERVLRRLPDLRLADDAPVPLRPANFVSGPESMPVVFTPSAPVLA

Structure (SMILES): CC(C)CCC[C@@H](C)[C@H]1CC[C@H]2[C@@H]3CCC4=CC(=O)CC[C@]4(C)[C@H]3CC[C@]12C [Cholest-4-en-3-one]
- Kd (CYP125A3): 2.3 ± 1.4 µM
- Kd (CYP142A2 [1]): 0.52 ± 0.26 µM

Structure (SMILES): CC(C)CCC[C@@H](C)[C@H]1CC[C@H]2[C@@H]3CC=C4C[C@@H](O)CC[C@]4(C)[C@H]3CC[C@]12C [Cholesterol]
- Soret band position after ligand addition (CYP142A2 [2]): 393 nm
- Kd (CYP125A3): 1.1 ± 0.5 µM
- Soret band position after ligand addition (CYP125A3): 393 nm
- Kd (CYP142A2 [1]): 0.14 ± 0.07 µM

Structure (SMILES): Clc1ccccc1C(c1ccccc1)(c1ccccc1)n1ccnc1 [Clotrimazole]
- Kd (CYP125A3): 14.5 ± 1.58 µM
- Kd (CYP142A2 [1]): 16.2 ± 0.75 µM

Structure (SMILES): Clc1ccc(COC(Cn2ccnc2)c2ccc(Cl)cc2Cl)cc1 (centres unmarked) [Econazole]
- Soret band position after ligand addition (CYP142A2 [2]): 422 nm
- Kd (CYP125A3): 7.38 ± 0.71 µM
- Soret band position after ligand addition (CYP125A3): 415 nm
- Kd (CYP142A2 [1]): 7.4 ± 0.52 µM

Structure (SMILES): Clc1ccc(COC(Cn2ccnc2)c2ccc(Cl)cc2Cl)c(Cl)c1 (centres unmarked) [Miconazole]
- Kd (CYP125A3): 1.66 ± 0.21 µM
- Kd (CYP142A2 [1]): 6.58 ± 0.7 µM

Reference: publication PMC3706556 (Environmental microbiology, 2013)
